Data as given in patent US11554124B2, “Hematopoiesis-enhancing agent” (priority 2018, dated 2023).

Legend:
Format in all cases: in vivo, mouse
[1] = test system: trimethylation of lysine 9 of histone H3 (H3K9me3); assay: Western blot of H3K9me3 in bone marrow erythroblast subset II; conditions: CLEU, BM erythroblast subset II, Day 2, vs PBS
Excerpt: FIG. 4 is the experimental result showing that epigenetic demethylation induces the final maturation of erythroblasts. Panel A: WGBS (whole genome bisulfite sequencing) results of bone marrow erythroblast subset II harvested from CLEU or PBS treated mouse (Day 2) (CLEU; n=2, PBS; n=2). Panel B: Difference in expression levels versus difference in CpG methylation of the promoter for all expressed genes (at least one of FPKM>10 and CV<0.5). The correlation (Cor) was −0.08. […] The correlation (Cor) was −0.11. Panel D: Images (photographs) showing western blot (WB) results of trimethylation of lysine 9 of histone H3 (H3K9me3) on bone marrow erythroblast subset II harvested from CLEU or PBS treated mouse (Day 2). Panels E-G: In vitro red blood cell differentiation of Human CD34^+ cord blood cells. Panel E: Representative results of flow cytometric analysis. Panel F: Cumulative results for the indicated cell population. Panel G: Cumulative results for CD34 EMI (CD34 red blood cell maturation index: CD71^+ GlyA^+/CD71^+ GlyA^−). Each point shown in the box plots represents each technical replicate. Asterisk indicates P<0.001.
The overall transcriptional changes observed as above could be attributed to epigenetic modification changes due to the reduced abundance of intracellular SAM (Panel A of FIG. 2). […]

[2] = test system: SAM present in erythroblasts; assay: Abundance of SAM in bone marrow erythroblasts of treated mice (mass spectrometry); conditions: CLEU 50 mg/body i.p., bone marrow subset II, Day 2, vs PBS
Description: Wild-type mice with a genetic background of C57BL/6J were purchased from Charles River Laboratories, Inc. Mice at 8 to 14 weeks of age were used for analysis. For CLEU treatment (50 mg/body), a solution of cycloleucine (CLEU) was prepared by diluting cycloleucine (CLEU) (Sigma) in PBS (50 mg/ml), and 1 ml of the CLEU solution was administered intraperitoneally. For AKBA treatment (2 mg/body), 2 mg AKBA (Enzo Life Sciences)/20% DMSO/1 mL PBS solution was administered intraperitoneally. Vehicle without AKBA was used as a control. For measuring complete blood count of peripheral blood, peripheral blood was collected from facial veins and counted by use of an automated animal blood cell counter (microsemi LC-662). All of the experiments conducted in this study were approved by the Animal Experiment Committee of the Environmental Safety Committee of Tohoku University. BM cells and spleen cells were harvested in a conventional manner. Cells were stained with combinations of antibodies specific to erythroblasts and mature cells, to thereby identify them. The cells were visualized with antibody and streptavidin-peridinin chlorophyll protein-cyanin 5.5. […] Flow cytometric analysis and cell sorting were performed according to the manufacturer's protocol using FACS AriaII (BD), and then the obtained data were analyzed using FlowJo software (TreeStar). […]

[3] = test system: BM erythroblast subset II; assay: RNA sequencing / RT-PCR of BM erythroblast subset II of treated mice
Description: Total RNA was isolated by using the RNeasy kit (Qiagen) from the sorted sample of bone marrow subset II erythroblasts (PBS; n=4, CLEU; n=4). The quality of the isolated RNA ([…]) was checked using a 2100 bioanalyzer (Agilent), and 250 ng of the RNA was used as input for library preparation in accordance with the manufacturer's instructions using the TruSeq Stranded mRNA Library Prep Kit (Illumina). High-throughput sequencing (51 bp, single-ended) was performed using Hiseq2500 Rapid mode v2 (Illumina). Sequenced reads were mapped to the reference mouse genome (mm9) by using bowtie2 version 2.2.5 and tophat version 2.1.0, and then the abundances of transcripts were estimated by using cufflinks version 2.2.1. Gene expression levels were normalized to the average of fragments per kilobase of transcript per million mapped reads (FPKM) value. Individually expressed genes with FPKM>10 and CV<0.5 (under at least one of the two conditions) were used for further analysis (log2 FC<−0.5 or log2 FC>0.5, P<0.05 within each condition).
For the purpose of elucidating the mechanism of the maturation of erythroblasts induced by CLEU treatment, RNA sequencing analysis of BM erythroblast subset II was performed. […] According to previous reports which had shown the contributory role of CD163 and Apoe in erythropoiesis, up-regulation of CD163 and/or Apoe is necessary for proper use of heme and/or lipid membrane synthesis during the maturation of erythroblasts. […] Considering the fact that abnormalities in globin genes cause the maturation defects in erythroblasts in disorders such as thalassemia, up-regulation of these genes, on the other hand, could be the driving force for the final maturation stage of erythroblasts.

[4] = CLEU, subset II, Day 2, RT-PCR normalized to Actb

Structure (SMILES): NC1(C(=O)O)CCCC1 [CLEU, cycloleucine]
- trimethylation of H3K9 [1]: decreased
- abundance of SAM present in erythroblasts [2]: reduce the abundance of SAM
- number of genes identified as significantly up-regulated ([3]; CLEU, BM erythroblast subset II, Day 2, RNA sequencing, vs PBS): 72 genes
- expression of Gata1, Tal1, and Klf1 ([3]; CLEU, BM erythroblast subset II, Day 2, vs PBS): significantly down-regulated
- expression of Myb, Cited2 and H1f0 [3, 4]: significantly up-regulated
- expression of hemoglobin-related genes, CD163 and Apoe (validation analysis) [3, 4]: significantly up-regulated
- expression levels of several histone methyltransferase ([3]; CLEU, subset II, RNA sequencing): significantly down-regulated
- expression of globin genes ([3]; CLEU-treated erythroblasts, subset II, Day 2): most heavily expressed
